Test results reported in patent US10905691B2, “Use of triazolo(4,5-d)pyrimidine derivatives for prevention and treatment of bacterial infection” (Universite de Liege, priority 2016, dated 2021).
Values after ≈ are worked out from the molar mass of the structure shown.

Key:
[1] = system: Glycopeptide intermediate-resistant (GISA) S. aureus Mu-50 (ATCC 700695); experiment: MIC determination (EUCAST, Mueller-Hinton broth); format: cell-based; conditions: Staphylococcus aureus, ATCC700695
Method: (§1) Further experiments were conducted using different strains of S. aureus, as clinically relevant Gram-positive bacterial strains: ATCC 25904, ATCC 6538, methilcillin-resistant S. aureus (MRSA) ATCC BAA-1556, Glycopeptide intermediate-resistant (GISA) S. aureus Mu-50 (ATCC 700695) in order to determine the Minimal Inhibitory Concentration (MIC) which is the minimal concentration required to prevent bacterial growth; the Minimal Bactericidal Concentration (MBC) which determines the lowest concentration at which an antimicrobial agent kill a particular microorganism and a Minimum Duration for killing 99.9% bacteria (MDK99.9) which is a tolerance metric according to the EUCAST.
(§2) MIC determination: A single colony selected from the different strains of S. aureus is resuspended and cultured in the appropriate medium overnight (O/N) in aerobic conditions (37° C. with 220 rpm shaking), next day a 1:100 inoculum in Mueller-Hinton broth (MHB) was incubated in aerobic conditions for 3 hr (OD=0.08-0.1) and an inoculum of 1:300 dilution, corresponding to 3×10^5 CFU/ml, was incubated in presence or absence of different concentrations of Triafluocyl in 1% DMSO. After O/N growth the OD of each culture was measured at 600 nm in a spectrophotometer (OD600). The MIC represents the concentration at which there is no visible growth of bacteria, i.e. ΔOD at 600 nm equal to zero (blank is the medium alone). MIC for Triafluocyl against S. aureus ATCC 25904, ATCC 6538, methilcillin-resistant S. aureus (MRSA) ATCC BAA-1556, Glycopeptide intermediate-resistant (GISA), and S. aureus Mu-50 (ATCC 700695) were 20, 20, 15, and 20 μg/ml, respectively.
(§3) The Minimal Inhibitory Concentration (MIC) and the Minimal Bactericidal Concentration (MBC) of Fluometacyl were determined on several gram-positive strains (Table 2) following EUCAST (European Committee on Antimicrobial susceptibility Testing) recommendations.
(§4) For MIC determination a single colony was resuspended and cultured in the appropriate bacteria-specific medium (TSB: Tryptic Soy Broth for S. aureus atcc 25904 and S. epidermidis and BHI: brain-heart infusion medium for all the other strains) overnight (O/N) in aerobic conditions (37° C. with 220 rpm shaking), next day a 1:100 inoculum was incubated in Mueller-Hinton broth (MHB) in aerobic conditions for 3 hr (OD600=0.08-0.1). A further inoculum, 1:300 dilution of the MHB culture, corresponding to 3×10^5 CFU/ml, was grown in presence or absence of different concentrations of Fluometacyl, 1% DMSO in MHB for 20 hr.

[2] = system: S. aureus ATCC 25904; experiment: MIC determination (EUCAST, Mueller-Hinton broth); format: cell-based; conditions: Staphylococcus aureus, ATCC25904
Method: as §1, §2, §3, §4

[3] = system: methilcillin-resistant S. aureus (MRSA) ATCC BAA-1556; experiment: MIC determination (EUCAST, Mueller-Hinton broth); format: cell-based; conditions: Staphylococcus aureus
Method: as §1, §2, §3, §4

[4] = system: S. agalactiae (ATCC 12386); experiment: MBC and MDK99.9 determination (CFU counting); format: cell-based, Streptococcus agalactiae
Method: as §1, with “using” for “using different strains of”, “agalactiae (ATCC 12386),” for “aureus,”, “strains” for “strains: ATCC 25904, ATCC 6538, methilcillin-resistant S. aureus (MRSA) ATCC BAA-1556, Glycopeptide intermediate-resistant (GISA) S. aureus Mu-50 (ATCC 700695)”
MBC and MDK99.9 determination: A single colony selected from S. agalactiae (ATCC 12386) is resuspended and cultured in the appropriate medium (TSB, or BHI) overnight (O/N) in aerobic conditions (37° C. with 220 rpm shaking), next day a 1:100 inoculum in the appropriate medium was incubated in aerobic conditions for 2 h. The culture is then challenged with triafluocyl at MIC concentration or higher concentrations. Bacterial growth was measured after different time intervals by counting the colony-forming units after plating appropriate culture dilutions on BHI agar plates. […] And the real time needed is defined as the MDK99.9. MBC for Triafluocyl against S. agalactiae (ATCC 12386) was 40 μg/ml. MDK99.9 for Triafluocyl against S. agalactiae (ATCC 12386) was 1 hour.

[5] = system: S. epidermidis; experiment: Growth of low-density inoculum (OD600, 4 hr); format: cell-based, Staphylococcus epidermidis; conditions: inoculum 0.08×10^6 CFU/ml
Description: Moreover, we have tested the effect of Triafluocyl on a low-density inoculum, 0.08×10^6 CFU/ml, from a culture of S. epidermidis in logarithmic phase.

[6] = system: S. aureus Mu50 GISA; experiment: Killing curve (CFU counting); format: cell-based, Staphylococcus aureus; conditions: Triafluocyl 20 μg/ml vs high dose of Minocycline; FIG. 8B
Method: S. aureus Mu50 GISA was grown overnight in brain heart infusion (BHI) medium, diluted 1:100 in fresh BHI, and incubated aerobically at 37° C. until bacteria growth reached a logarithmic phase (OD600=0.25-0.3).
[…] Bacterial growth was measured after different time intervals by counting the colony-forming units after plating appropriate culture dilutions on BHI agar plates.

[7] = system: Staphyloccocus epidermidis (ATCC 35984) biofilm; experiment: Biofilm formation (crystal violet, 24-well plate); format: cell-based, Staphylococcus epidermidis; conditions: 38 μM; 20 hours; FIG. 10B
Method: Staphyloccocus aureus (ATCC 25904) or Staphyloccocus epidermidis (ATCC 35984) were grown overnight in TSB medium, before being diluted 100 fold in fresh TSB, and incubated aerobically at 37° C. until bacteria culture reached an OD600 of 0.6 (corresponding to approximately 1-3×10^8 CFU/ml). Bacteria cultures were then diluted to 1×10^4 CFU/ml in fresh TSB. Aliquots of 800 μl diluted bacteria suspensions were distributed in each well of a 24-well plate. Bacteria were allowed to adhere for 4 hours under static conditions at 37° C. After removing the media, wells were rinsed 2 times with PBS to eliminate planktonic bacteria and re-filled with TSB supplemented with 0.5% glucose containing Fluometacyl at desired concentration or DMSO alone (Ctrl). The 24-well plates were incubated at 37° C. for 20 hours. Wells were then washed and stained with 0.5% (w/v) crystal violet for 30 minutes and rinsed with PBS 4 times. The dye was solubilized by adding 20% acetic acid (v/v in water) before reading absorbance at 595 nm. FIG. 10A and FIG. 10B show Fluometacyl effect on S. aureus and S. epidermidis biofilm formation respectively at all concentrations tested.

MIC ([1]; S. aureus Mu50 GISA)	MIC [2]	MIC [3]	MIC ([1]; S. aureus MU50 GISA)	Compound	MDK 99.9 Time (h) needed to kill 99.9% of the started inoculum [4]	MBC ([4]; Streptococcus agalactiae, ATCC12386, cut-off 99.9% reduction in CFU)	decrease of OD600 compared to growth in absence of Triafluocyl ([5]; 5 μg/ml)	growth (OD600) of low-density inoculum ([5]; 10 μg/ml)	growth (OD600) of low-density inoculum ([5]; 20 μg/ml)	antibacterial effect on S. aureus GISA compared with Minocycline [6]	S. epidermidis biofilm formation [7]
20 µg/mL	20 µg/mL	15 µg/mL		CCCSc1nc(N[C@@H]2C[C@H]2c2ccc(F)c(F)c2)c2nnn([C@@H]3C[C@H](OCCO)[C@@H](O)[C@H]3O)c2n1 [Triafluocyl, (1S,2S,3R,5S)-3-[7-[(1R,2S)-2-(3,4-difluorophenyl)cyclopropylamino]-5-(propylthio)-3H-[1,2,3]-triazolo[4,5-d]pyrimidin-3-yl]-5-(2-hydroxyethoxy)-1,2-cyclopentanediol]	1 h	40 µg/mL (≈ 76.5 µM)	50%	inhibited growth	inhibited growth	quicker and more efficient antibacterial effect	
	30 to 38 µM	20 to 30 µM	30 to 38 µM	CCCSc1nc(N[C@@H]2C[C@H]2c2ccc(F)c(F)c2)c2nnn([C@@H]3C[C@H](O)[C@@H](O)[C@H]3O)c2n1 [Fluometacyl, (1S,2R,3S,4R)-4-[7-[[(1R,2S)-2-(3,4-Difluorophenyl)cyclopropyl]amino]-5-(propylthio)-3H-1,2,3-triazolo[4,5-d]pyrimidin-3-yl]-1,2,3-cyclopentanetriol]							could not form any biofilm
